{"source": "patent US20250197417A1", "about": "“CRYSTALLINE INTERMEDIATES” (QBIOTICS PTY LTD, priority 2021, published 2025)", "key": {"[1]": {"experiment": "Crystallization study, preliminary solvent screening (solubility comments)", "type": "physicochemical", "source_text": "An aliquot of purified compound of formula (Ia) obtained from Example 4 (0.83 L containing about 10 g of compound) was used in the crystallization study."}, "[2]": {"experiment": "Storage stability of crystalline forms of compound of formula (Ia)", "type": "physicochemical", "procedure": "Form A of the crystalline anhydrous Compound of formula (Ia) was stable for at least 9 months in industrial packaging (Type III amber glass vial (10 mL) closed by a black plastic screw cap with polyethylene stoppers) at 25° C. and 60% relative humidity and as a free crystalline powder at 80° C. and 60% humidity for 24 hours.\nThe anhydrous crystalline Form B was characterized by an X-ray powder diffraction (X-RPD) pattern obtained using the copper wavelengths λ1 and λ2 of 1.54056 Å and 1.54439 Å showing a crystalline structure and comprising distinctive reflections, expressed as 20 degrees values, at 4.9, 8.5, 9.8, 11.4, 14.6, 16.5, 17.5, 19.5, 21.4, 27.7, 28.7±0.2 degrees 2θ."}}}
{"smiles": "CC1=CC2[C@]3(O)C(C4C(C)(C)[C@]4(O)[C@H](O)[C@H]3C)[C@@H]3O[C@@]34COC(C)(C)O[C@H]4[C@]2(O)C1=O", "note": "(stereo partly shown) [Compound of formula (Ia)]", "values": [{"measurement": "Comment (solubility)", "setting": "[1]; 2-Propanol, 5 V → 10 V, 20-25° C. → reflux, remained dissolved", "value": "Remained"}, {"measurement": "Comment (solubility)", "setting": "[1]; Acetone, 5 V → 10 V, 20-25° C. → reflux, soluble only with 10 V of acetone at reflux", "value": "Soluble only"}, {"measurement": "Comment (solubility)", "setting": "[1]; Acetonitrile, 5 V → 10 V, 20-25° C. → reflux, dissolution observed at reflux", "value": "Dissolution"}, {"measurement": "Comment (solubility)", "setting": "[1]; Dimethylformamide, 5 V → 10 V, 20-25° C., soluble only with 10 V of DMF", "value": "Soluble only"}, {"measurement": "Comment (solubility)", "setting": "[1]; Ethyl acetate, 5 V → 10 V, 20-25° C., remained dissolved", "value": "Remained"}, {"measurement": "Comment (solubility)", "setting": "[1]; Methyl tert-butyl ether, 5 V → 20 V, 20-25° C. → reflux", "value": "Not soluble"}]}
{"smiles": "CC1=CC2[C@]3(O)C(C4C(C)(C)[C@]4(O)[C@H](O)[C@H]3C)[C@@H]3O[C@@]34COC(C)(C)O[C@H]4[C@]2(O)C1=O", "note": "(stereo partly shown) [Form A]", "values": [{"measurement": "stable (storage time)", "setting": "[2]; free crystalline powder, 80° C. and 60% humidity", "value": 24, "unit": "h"}, {"measurement": "stable (storage time)", "setting": "[2]; industrial packaging (Type III amber glass vial, 10 mL, screw cap with polyethylene stoppers), 25° C. and 60% relative humidity", "value": "at least 9 months"}, {"measurement": "solid form change upon storage", "setting": "[2]; storage at 5° C. for 5 days", "value": "transformed into a dihydrate form"}, {"measurement": "solid form change upon storage", "setting": "[2]; storage at 25° C. at 80% relative humidity for 68 hours", "value": "a new stable anhydrous crystalline form was formed, Form B"}, {"measurement": "solid form change upon storage", "setting": "[2]; storage at 40° C. at 80% relative humidity for 7 days", "value": "a new stable anhydrous crystalline form was formed, Form B"}]}
{"smiles": "CC1=CC2[C@]3(O)C(C4C(C)(C)[C@]4(O)[C@H](O)[C@H]3C)[C@@H]3O[C@@]34COC(C)(C)O[C@H]4[C@]2(O)C1=O", "note": "(stereo partly shown) [Form B]", "values": [{"measurement": "stable unchanged (further storage time)", "setting": "[2]; 25° C. at 80% relative humidity", "value": "≥ 7", "unit": "days"}]}
{"smiles": "CC1=CC2[C@]3(O)C(C4C(C)(C)[C@]4(O)[C@H](O)[C@H]3C)[C@@H]3O[C@@]34COC(C)(C)O[C@H]4[C@]2(O)C1=O", "note": "(stereo partly shown) [dihydrate form]", "values": [{"measurement": "solid form change upon storage", "setting": "[2]; storage at 25° C. and 80% relative humidity for 5 days", "value": "transformed back to Form A"}]}
